Source: patent US9023862B2, “Medicament for the treatment of endometriosis” (Ferring International Center S.A., priority 2007, dated 2015)

Columns and labels:
Ang-1 = test: TaqMan Real-time PCR gene expression in implants: Ang-1; type: in vivo, mice; conditions: for Ang-1 relative expression: vehicle 1.1 ± 0.2, Mean ± SD
Description: (§1) TaqMan Real-time PCR and 2^−ΔΔCt methods were used to analyze the gene expression profiles of three different markers that promote angiogenesis (VEGF, VEGFR-2, Notch-4); Angiopoietin-1 (Ang-1), an antiangiogenesis marker which promotes the enlargement of existing vessels and resistance to leakage; and Wnt-1.
(§2) TaqMan Real-time PCR and 2^−ΔΔCt methods were used to analyze the gene expression profiles of three different markers that promote angiogenesis (VEGF, VEGFR-2, Notch-4); Angiopoietin-1 (Ang-1), an antiangiogenesis marker which promotes the enlargement of existing vessels and resistance to leakage; and Wnt-1. The housekeeping 18S rRNA was used to normalize the target gene Ct values. The Ct value in each group was expressed relative to the control group Ct values (calibrator), to calculate the relative expression by the 2^−ΔΔCt method. cDNA obtained from sarcoma 180 tumor cells (S-180) and human umbilical vein endothelial cells (HUVEC) was used as negative and positive control, respectively, for the VEGF and VEGFR-2 gene expression. Spleen was used as positive control for Ang-1 and Wnt-1, and lung was employed as a Notch-4 positive control.

endometriotic lesions [1] = test: Nude mouse endometriosis model: active lesions, histology (OM, TEM) and morphometry; type: in vivo, mice; conditions: for percentage of active lesions: two weeks, control 89.6±5.7%, p=0.0169, mean ± SEM
Method: An experimental animal endometriosis model was developed in nude mice by inserting human endometrium fragments. Female mice (Hsd: Athimic Nude-nu, Harlan Ibérica S. L, Barcelona, Spain) were individually housed in autoclaved cages and bedding, in laminar flow filtered hoods. The animal room was maintained at 26 C with a 12-h light, 12-h dark cycle, and mice were fed ad libitum with autoclaved laboratory rodent chow and acidified water. All handling was performed in laminar flow filtered hoods. A mixture of ketamine/medetomidine (75 μg/g ketamine and 1 μg/g medetomidine) (Ketolar®, Parke-Davis, España; Domtor®, Pfizer, Spain) i.p injected, was used to anesthetize mice before invasive procedures and atipamezole (Antisedan®, SmithKline Beecham, Spain) 1 μg/g i.p injected, to reverse the anesthesia effects, was used after invasive procedures, using sterile instruments.
At the age of 5 weeks, sterile 60-d release capsules containing 18 mg 17β-estradiol (Innovative Research of America, Sarasota, Fla.) were placed sc in the neck of each animal. According to the manufacturer's information, capsules provide continuous release of hormone at serum concentrations of 150-250 pmol/liter, in the range of physiological levels in mice during the estrous cycle. This stable physiological level of estrogen promotes the growth of transplanted human endometrium and avoids intermouse differences related to various stages of the estrous cycle.
Four days after insertion of the estrogen pellet, an entrance was made to the peritoneal cavity in the midline in the lower abdomen to insert fresh human endometrium from ovum pick-up donors. These fragments were stuck by glue (Vetabond®, 3M Animal Care products, USA) to the peritoneum. This protocol allowed to mimic the pathologic situation of retrograde menstruation that occur in women with endometriosis.
(§3) Morphometric study was performed to measure the implants area and cellular density. Immunocytochemistry with Ki-67 (monoclonal IgG1 DAKO Corp., Denmark) antibody was performed in order to evaluate the proliferative activity of the implants. The histopathological and subcellular ultrastructural changes were detected using an optical microscope (OM), transmission electronic microscope (TEM) and histochemical staining. Optical microscopy (OM), transmission electron microscopy (TEM) and morphometry were performed to ascertain the presence of endometrial glands and stroma and study subcellular ultrastructural changes, area of the implants and cellular density.

endometriotic lesions [2] = test: Ki-67 immunocytochemistry, proliferative activity of the implants; type: in vivo, mice; conditions: both low and high dose groups vs control; P<0.001
Method: as §3
An immunocyto chemistry study using the Ki-67 antibody (i.e. analysing the degree of cellular proliferation employing antibodies against Ki-67) was used to evaluate the proliferative activity of the implants using methods known in the art.

Wnt-1 = test: TaqMan Real-time PCR gene expression in implants: Wnt-1; type: in vivo, mice; conditions: for Wnt-1 relative expression: vehicle 1.0 ± 0.1, Mean ± SD
Description: as §1, §2

[3] = tested on: blood vessels in endometriotic lesions; test: Immunofluorescence (vWF/α-SMA) of new and mature blood vessels in the implants; type: in vivo, mice; conditions: low and high dose groups vs control
Method: The anti-angiogenic effects of the dopamine agonists were assessed by immunofluorescence, the antibodies used in confocal microscopy raised against Von Willebrand factor (vWF monoclonal IgG1, DAKO Corp., Denmark) present in endothelial cells and vascular smooth muscle cells (monoclonal IgG2 α-SMA-FITC conjugated de Sigma, St Louis, USA). Blood vessel which are not of new formation, are rounded by a smooth muscle layer which confers maturity to them. Identification of endothelial cells was made employing vWF, whereas mature vessels were identified by α-SMA positive staining. Thus, vWF+/αSMA− blood vessels were considered new or immature, while vWF+/αSMA+ vessels were classified as old or mature blood vessels.
The angiogenic status of the lesions was initially analyzed using immunofluorescence employing antibodies to identify new (vWF+/αSMA−) and old vessels (vWF+/αSMA+) and confocal microscopy (Leica Confocal Software). Immunofluorescence employing antibodies raised against the Von Willebrand factor (vWF) present in endothelial cells and vascular smooth muscle cells (α-SMA) can be used to test the antiangiogenic action Cb2. Blood vessel which are not of new formation, are rounded by a smooth muscle layer which confers maturity to them. Identification of endothelial cells was made employing vWF, whereas mature vessels were identified by α-SMA positive staining. […]

[4] = mouse, in vivo
Description: (§4) Three weeks after implantation the animals were split into three groups. […] Two weeks after treatment the animals were sacrificed and the endometriotic lesions sampled and analysed as set out below.

VEGFR-2 (KDR) = test: TaqMan Real-time PCR gene expression in implants: VEGFR-2 (KDR); type: in vivo, mice; conditions: for VEGFR-2 (KDR) relative expression: vehicle 1.0 ± 0.1, Mean ± SD
Description: as §1, §2

[5] = Toxicity in the nude mouse endometriosis study; conditions: 0.05 and 0.1 mg/kg/day oral, two weeks
Description: as §4

Notch-4 = test: TaqMan Real-time PCR gene expression in implants: Notch-4; type: in vivo, mice; conditions: for Notch-4 relative expression: vehicle 1.0 ± 0.1, Mean ± SD
Description: as §1, §2

VEGF = test: TaqMan Real-time PCR gene expression in implants: VEGF; type: in vivo, mice; conditions: for VEGF relative expression: vehicle 1.2 ± 0.3, Mean ± SD
Description: as §1, §2

[6] = low and high dose groups, p <0.05

C=CCN1C[C@H](C(=O)N(CCCN(C)C)C(=O)NCC)C[C@@H]2c3cccc4[nH]cc(c34)C[C@H]21 [cabergoline]
Ang-1 relative expression (Ang-1; HIGH DOSE (0.1 mg/kg/day)): 3.7 ± 0.6 | Ang-1 relative expression (Ang-1; LOW DOSE (0.05 mg/kg/day)): 3.2 ± 0.6 | Expression of Ang-1 in treated groups vs vehicle (Ang-1; [6]): Upregulated | ratio glands/stroma (morphometry) (endometriotic lesions [1]; both low (0.05 mg/kg/day) and high (0.1 mg/kg/day) doses vs controls, p<0.05): more stroma and less glands than the controls | cellular density (morphometry) (endometriotic lesions [1]; control, low and high dose groups): no statistical difference among groups | histology of treated lesions (OM and TEM) (endometriotic lesions [1]; high and low dose): a lax stroma, with lost cellularity and organization | percentage of active lesions (endometriotic lesions [1]; high dose 0.1 mg/kg/day oral): 60.4±8.4% | percentage of active lesions (endometriotic lesions [1]; low dose 0.05 mg/kg/day oral): 58.6±9.7% | proliferation (Proliferation Index, Ki-67 positive cells) (endometriotic lesions [2]): decrease in proliferation | Wnt-1 relative expression (Wnt-1; HIGH DOSE (0.1 mg/kg/day)): 3.3 ± 0.6 | Wnt-1 relative expression (Wnt-1; LOW DOSE (0.05 mg/kg/day)): 3.4 ± 0.2 | Expression of Wnt-1 in treated groups vs vehicle (Wnt-1; low and high dose groups, p =0.07): Upregulated | new blood vessel formation (angiogenesis) [3]: significantly reduced new blood vessel formation | body weight of the mice in the different treatment groups [4]: not significantly different | VEGFR-2 (KDR) relative expression (VEGFR-2 (KDR); HIGH DOSE (0.1 mg/kg/day)): 0.3 ± 0.1 | VEGFR-2 (KDR) relative expression (VEGFR-2 (KDR); LOW DOSE (0.05 mg/kg/day)): 0.4 ± 0.1 | Expression of VEGFR-2 (KDR) in treated groups vs vehicle (VEGFR-2 (KDR); [6]): Downregulated | mortality following administration [5]: No mice in the study died | Notch-4 relative expression (Notch-4; HIGH DOSE (0.1 mg/kg/day)): 0.4 ± 0.1 | Notch-4 relative expression (Notch-4; LOW DOSE (0.05 mg/kg/day)): 0.5 ± 0.1 | Expression of Notch-4 in treated groups vs vehicle (Notch-4; [6]): Downregulated | VEGF relative expression (VEGF; HIGH DOSE (0.1 mg/kg/day)): 0.4 ± 0.1 | VEGF relative expression (VEGF; LOW DOSE (0.05 mg/kg/day)): 0.5 ± 0.2 | VEGF expression in endometrial implants (VEGF; increasing doses (control, 0.05, 0.1 mg/kg/day), FIG. 6a): trend towards decreased VEGF expression | Expression of VEGF in treated groups vs vehicle (VEGF; [6]): Downregulated
